# Data published in ChEMBL document CHEMBL1123274, “Azasteroids: structure-activity relationships for inhibition of 5 alpha-reductase and of androgen receptor binding” (J Med Chem, 1986).
# Molecular target: T1, Androgen receptor (Rattus norvegicus, UniProt P15207)
# T1 sequence (P15207 whole entry): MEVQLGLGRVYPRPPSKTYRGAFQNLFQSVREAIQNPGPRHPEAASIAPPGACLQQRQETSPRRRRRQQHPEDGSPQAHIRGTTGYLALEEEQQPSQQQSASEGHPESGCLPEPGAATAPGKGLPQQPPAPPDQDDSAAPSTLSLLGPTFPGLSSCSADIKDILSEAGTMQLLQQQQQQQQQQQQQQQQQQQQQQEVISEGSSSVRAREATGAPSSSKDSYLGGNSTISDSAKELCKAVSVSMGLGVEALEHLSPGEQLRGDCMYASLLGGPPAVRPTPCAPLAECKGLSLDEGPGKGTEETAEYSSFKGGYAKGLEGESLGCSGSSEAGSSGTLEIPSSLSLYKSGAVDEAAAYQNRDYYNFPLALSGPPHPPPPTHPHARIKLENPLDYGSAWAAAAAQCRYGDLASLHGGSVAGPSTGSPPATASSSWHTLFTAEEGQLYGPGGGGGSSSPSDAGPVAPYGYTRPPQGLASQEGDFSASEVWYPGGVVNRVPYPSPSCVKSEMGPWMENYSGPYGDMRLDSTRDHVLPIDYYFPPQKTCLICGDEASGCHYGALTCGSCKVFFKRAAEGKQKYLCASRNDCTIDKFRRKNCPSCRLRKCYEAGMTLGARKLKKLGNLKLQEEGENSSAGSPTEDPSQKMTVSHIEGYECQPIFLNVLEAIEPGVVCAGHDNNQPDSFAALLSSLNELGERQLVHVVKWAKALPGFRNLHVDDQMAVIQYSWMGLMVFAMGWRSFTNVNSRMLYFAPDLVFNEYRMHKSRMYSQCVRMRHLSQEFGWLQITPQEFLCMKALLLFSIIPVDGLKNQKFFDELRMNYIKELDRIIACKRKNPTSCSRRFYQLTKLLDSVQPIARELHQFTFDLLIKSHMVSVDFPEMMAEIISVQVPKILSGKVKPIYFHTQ
# Assay: In vitro antagonist activity against rat prostatic androgen receptor (AR)
row,SMILES,IC50 [nM]
1,CN1C(=O)C=C[C@@]2(C)C1CC[C@H]1[C@@H]3CC[C@H](C(=O)NC(C)(C)C)[C@@]3(C)CC[C@@H]12 (stereo partly drawn),150
2,CC(C)CC(=O)[C@H]1CC[C@H]2[C@@H]3CCC4NC(=O)CC[C@]4(C)[C@H]3CC[C@]12C (stereo partly drawn),> 100000
3,CC(=O)[C@H]1CC[C@H]2[C@@H]3CCC4=CC(=O)CC[C@]4(C)[C@H]3[C@H](O)C[C@]12C,330
4,CC(C)N(C(=O)[C@H]1CC[C@H]2[C@@H]3CC=C4N(C)C(=O)C=C[C@]4(C)[C@H]3CC[C@]12C)C(C)C,6400
5,CCCCCNC(=O)[C@H]1CC[C@H]2[C@@H]3CCC4N(C)C(=O)CC[C@]4(C)[C@H]3CC[C@]12C (stereo partly drawn),250
6,C[C@]12C=CC(=O)N[C@@H]1CC[C@@H]1[C@@H]2CC[C@]2(C)[C@@H](O)CC[C@@H]12,170
7,CCNC(=O)[C@H]1CC[C@H]2[C@@H]3CC[C@H]4N(C)C(=O)C=C[C@]4(C)[C@H]3CC[C@]12C,83
8,C[C@]12C=CC(=O)N[C@@H]1CC[C@@H]1[C@@H]2CC[C@]2(C)[C@@H](C(N)=O)CC[C@@H]12,> 10000
9,CN1C(=O)CC[C@@]2(C)C1=CC[C@H]1[C@@H]3CC[C@H](O)[C@@]3(C)CC[C@@H]12,7.4
10,CCN(CC)C(=O)[C@H]1CC[C@H]2[C@@H]3CC[C@H]4N(C)C(=O)CCC[C@]4(C)[C@H]3CC[C@]12C,600
11,CN1C(=O)C=C[C@@]2(C)C1CC[C@H]1[C@@H]3CC[C@H](C(=O)c4ccc[nH]4)[C@@]3(C)CC[C@@H]12 (stereo partly drawn),15
12,CN1C(=O)C=C[C@@]2(C)C1CC[C@H]1[C@@H]3CC[C@H](C(=O)Sc4ccccn4)[C@@]3(C)CC[C@@H]12 (stereo partly drawn),100
13,COC(=O)[C@H]1CC[C@H]2[C@@H]3CC[C@H]4NC(=O)C=C[C@]4(C)[C@H]3CC[C@]12C,3200
14,CCNC(=O)[C@H]1CC[C@H]2[C@@H]3CC[C@H]4NC(=O)C=C[C@]4(C)[C@H]3CC[C@]12C,> 10000
15,CN1C(=O)CC[C@@]2(C)C1CC[C@H]1[C@@H]3CC[C@H](C(=O)c4ccc[nH]4)[C@@]3(C)CC[C@@H]12 (stereo partly drawn),89
16,CCN(CC)C(=O)[C@H]1CC[C@H]2[C@@H]3CC[C@H]4N(C)C(=O)[C@@H]5O[C@@H]5[C@]4(C)[C@H]3CC[C@]12C,710
17,CC(C)N(C(=O)[C@H]1CC[C@H]2[C@@H]3CC=C4N(C)C(=O)CC[C@]4(C)[C@H]3CC[C@]12C)C(C)C,10000
18,CC(C)CC(=O)[C@H]1CC[C@H]2[C@@H]3CCC4NC(=O)C=C[C@]4(C)[C@H]3CC[C@]12C (stereo partly drawn),> 100000
19,COC(=O)[C@H]1CC[C@H]2[C@@H]3CC[C@H]4N(C)C(=O)C=C[C@]4(C)[C@H]3CC[C@]12C,13
20,CO[C@H]1CC(=O)NC2CC[C@H]3[C@@H]4CC[C@H](C(N)=O)[C@@]4(C)CC[C@@H]3[C@]21C (stereo partly drawn),> 100000
21,C[C@]12CC[C@H]3[C@@H](CCC4NC(=O)C=C[C@@]43C)[C@@H]1CC[C@@H]2C(=O)Sc1ccccn1 (stereo partly drawn),> 10000
22,CN1C(=O)C=C[C@]2(C)[C@H]3CC[C@]4(C)[C@@H](O)CC[C@H]4[C@@H]3CC[C@@H]12,2.4
23,CN1C(=O)C=C[C@]2(C)[C@H]3CC[C@]4(C)[C@@H](C(N)=O)CC[C@H]4[C@@H]3CC[C@@H]12,150
24,CN1C(=O)CC[C@H]2C1=CC[C@@H]1[C@@H]2CC[C@@]2(C)[C@H]1CC[C@@]21CCCO1 (stereo in doubt; 75),150

# The remaining lines, values ahead:
row,IC50 [nM],SMILES
1,1500,C[C@]12C=CC(=O)NC1CC[C@@H]1[C@@H]2CC[C@@]2(C)[C@H]1CC[C@@]21CCCO1 (stereo partly drawn)
2,> 100000,CC(C(=O)O)[C@H]1CC[C@H]2[C@@H]3CCC4NC(=O)C=C[C@]4(C)[C@H]3CC[C@]12C (stereo partly drawn)
3,560,CCN(CC)C(=O)C[C@H]1CC[C@H]2[C@@H]3CCC4N(C)C(=O)CC[C@]4(C)[C@H]3CC[C@]12C (stereo partly drawn)
4,> 10000,CCN(CC)C(=O)[C@H]1CC[C@H]2[C@@H]3CC[C@H]4N(C)C(=O)[C@@H](OC)C[C@]4(C)[C@H]3CC[C@]12C
5,440,CN1C(=O)CC[C@@]2(C)C1CC[C@H]1[C@@H]3CC[C@H](C(N)=O)[C@@]3(C)CC[C@@H]12 (stereo partly drawn)
6,> 100000,CC(C)(C)CC(C)(C)NC(=O)[C@H]1CC[C@H]2[C@@H]3CCC4NC(=O)C=C[C@]4(C)[C@H]3CC[C@]12C (stereo partly drawn)
7,340,CCCCCCCCNC(=O)[C@H]1CC[C@H]2[C@@H]3CCC4N(C)C(=O)C=C[C@]4(C)[C@H]3CC[C@]12C (stereo partly drawn)
8,> 10000,CCN(CC)C(=O)[C@H]1CC[C@H]2[C@@H]3CC[C@H]4N(C)C(=O)[C@H](OC)C[C@]4(C)[C@H]3CC[C@]12C
9,8000,C[C@]12CC[C@H]3[C@@H](CCC4NC(=O)C=C[C@@]43C)[C@@H]1CC[C@@H]2C(=O)c1ccc[nH]1 (stereo partly drawn)
10,580,CN1C(=O)CC[C@@]2(C)C1CC[C@H]1[C@@H]3CC[C@H](C(=O)C=[N+]=[N-])[C@@]3(C)CC[C@@H]12 (stereo partly drawn)
11,2000,CN1C(=O)CC[C@H]2C1CC[C@@H]1[C@@H]2CC[C@@]2(C)[C@H]1CC[C@@]21CCCO1 (stereo partly drawn)
12,940,CN1C(=O)CC[C@@]2(C)C1CC[C@H]1[C@@H]3CC[C@H](C(=O)NC(C)(C)CO)[C@@]3(C)CC[C@@H]12 (stereo partly drawn)
13,7100,CCN(CC)C(=O)[C@H]1CCC[C@H]2[C@@H]3CC[C@H]4N(C)C(=O)CC[C@]4(C)[C@H]3CC[C@]12C
14,> 100000,CC(C(=O)O)[C@H]1CC[C@H]2[C@@H]3CCC4NC(=O)CC[C@]4(C)[C@H]3CC[C@]12C (stereo partly drawn)
15,> 100000,C[C@]12CC[C@H]3[C@@H](CCC4NC(=O)CC[C@@]43C)[C@@H]1CC[C@@H]2C(N)=O (stereo partly drawn)
16,32000,CCN(CC)C(=O)[C@H]1CC[C@H]2[C@@H]3CC[C@H]4N(CC)C(=O)CC[C@]4(C)[C@H]3CC[C@]12C
17,270,COC(=O)C(C)[C@H]1CC[C@H]2[C@@H]3CCC4N(C)C(=O)C=C[C@]4(C)[C@H]3CC[C@]12C (stereo partly drawn)
18,> 100000,CC(C(=O)O)[C@H]1CC[C@H]2[C@@H]3CCC4N(C)C(=O)C=C[C@]4(C)[C@H]3CC[C@]12C (stereo partly drawn)
19,15000,C[C@]12CC[C@H]3[C@@H](CCC4NC(=O)CC[C@@]43C)[C@@H]1CC[C@@H]2C(=O)c1ccc[nH]1 (stereo partly drawn)
20,> 10000,CCN(CC)C(=O)[C@H]1CC[C@H]2[C@@H]3CC[C@H]4NC(=O)CCC[C@]4(C)[C@H]3CC[C@]12C
21,240,CN1C(=O)CC[C@H]2C1=CC[C@@H]1[C@@H]2CC[C@@]2(C)[C@H]1CC[C@@]21CCCO1 (stereo in doubt; 74)
22,1800,CCN(CC)C(=O)[C@H]1CC[C@H]2[C@@H]3CC[C@H]4N(C)C(=O)[C@@H](F)C[C@]4(C)[C@H]3CC[C@]12C
23,> 100000,COC(=O)C(C)[C@H]1CC[C@H]2[C@@H]3CCC4NC(=O)C=C[C@]4(C)[C@H]3CC[C@]12C (stereo partly drawn)

# Molecular target: T2, Steroid 5-alpha-reductase (Rattus norvegicus, UniProt P24008+P31214)
# T2 sequence (P24008 whole entry): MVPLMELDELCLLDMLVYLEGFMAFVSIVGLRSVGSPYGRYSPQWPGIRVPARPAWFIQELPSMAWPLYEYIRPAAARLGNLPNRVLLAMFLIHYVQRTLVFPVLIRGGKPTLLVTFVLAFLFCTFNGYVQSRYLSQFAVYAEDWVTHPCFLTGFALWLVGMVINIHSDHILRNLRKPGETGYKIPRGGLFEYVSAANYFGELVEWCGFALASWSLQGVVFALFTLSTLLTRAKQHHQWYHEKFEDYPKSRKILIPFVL
# T2 sequence (P31214 whole entry): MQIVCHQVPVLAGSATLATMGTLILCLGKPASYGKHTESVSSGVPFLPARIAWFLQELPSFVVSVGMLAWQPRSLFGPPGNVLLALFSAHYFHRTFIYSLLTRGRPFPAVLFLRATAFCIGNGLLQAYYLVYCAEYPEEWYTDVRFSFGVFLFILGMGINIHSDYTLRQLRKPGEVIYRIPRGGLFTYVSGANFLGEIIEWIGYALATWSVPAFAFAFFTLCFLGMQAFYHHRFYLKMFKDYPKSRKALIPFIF
# Assay: In vitro inhibitory activity against rat prostatic steroid 5-alpha-reductase
# Type: protein assay
SMILES,IC50 [nM],Ki app [nM]
CN1C(=O)C=C[C@@]2(C)C1CC[C@H]1[C@@H]3CC[C@H](C(=O)NC(C)(C)C)[C@@]3(C)CC[C@@H]12 (stereo partly drawn),13,–
COC(=O)[C@H]1CC[C@H]2[C@@H]3CCC4NC(=O)CC[C@]4(C)[C@H]3CC[C@]12C (stereo partly drawn),–,133

# More lines, now with the values ahead:
IC50 [nM],Ki app [nM],SMILES
430,–,C[C@]12C=CC(=O)NC1CC[C@@H]1[C@@H]2CC[C@@]2(C)[C@H]1CC[C@@]21CCCO1 (stereo partly drawn)
7.9,–,CCN(CC)C(=O)C[C@H]1CC[C@H]2[C@@H]3CCC4N(C)C(=O)CC[C@]4(C)[C@H]3CC[C@]12C (stereo partly drawn)
17,–,CN1C(=O)CC[C@@]2(C)C1CC[C@H]1[C@@H]3CC[C@H](C(N)=O)[C@@]3(C)CC[C@@H]12 (stereo partly drawn)
6.8,–,CC(C)(C)NC(=O)[C@H]1CC[C@H]2[C@@H]3CC[C@H]4NC(=O)C=C[C@]4(C)[C@H]3CC[C@]12C [FINASTERIDE]
